From PubChem BioAssay AID464 (The Scripps Research Institute Molecular Screening Center, 2006) come the findings set out here.

The source made the active and inactive calls.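 Rule for the calls: active = Compounds that kill half the cells at a concentration of 5 micromolar or below, from the fitted or estimated CC50; inactive = CC50 above 5 micromolar.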

This assay concerns Jurkat E6.1 viability, ATP luminescence, 48 h. As to the kind of experiment: viability loss in Jurkat T cells – cell-based, ATP luminescence, 48 h, 60K MLSMR, cytotoxicity control, dose response (AID 464).
As to `Cc1nn(Cc2c(Cl)cccc2Cl)c(C)c1NC(=O)c1cc(C(C)C)on1`, the CC50 is > 40 µM (inactive).
Regarding `CC(=O)CC1OC(=O)C(Br)=C1NCc1ccccc1` (stereo not given), the 50% cytotoxic concentration (CC50) is 3.91 µM.
Under `CCOc1ccc(N(CC)S(=O)(=O)c2ccc3c(c2)oc(=O)n3C)cc1` stands 2.94 µM; under `COC(=O)Nc1ccc(S(=O)(=O)N2c3ccccc3CCC2C)cc1` (stereo not given), 2.19 µM; under `CSCCOC(=O)c1[nH]c2c(c1C)C(=O)CC(c1ccco1)C2` (stereo not given), 1.67 µM.
Under `O=C(Nc1nnc(-c2cccs2)o1)c1cccc(F)c1` stands 21.7 µM (inactive); under `CC(=O)c1sc(NC(=O)C2(F)C(F)(F)C(F)(F)C(F)(F)C(F)(F)C2(F)F)nc1C`, > 13 µM (inactive).
`O=C(c1ccccc1-c1ccccc1)N1CCN(c2ccccn2)CC1`: the CC50 was 1.55 µM.
Under `O=S1(=O)Nc2c(ccc3cccnc23)-c2ccccc21` stands 4.74 µM.
For the compound `CCOC(=O)c1ccc(NC(=O)c2ccc(CN3CCOCC3)cc2)cc1`, the CC50 is 5.13 µM (inactive).
As to `COc1ccc(C2=NOC(C(=O)NCc3ccc(F)cc3)C2)cc1OC` (stereo not given), the cytotoxic concentration (CC50) was 0.318 µM.
Under `COc1cc(C)c(C(C)C)cc1S(=O)(=O)n1cnc(C)c1` stands 7.61 µM (inactive).
Under `CCN(CC)c1ccc2cc(-c3nc4ccccc4n3C)c(=O)oc2c1` stands 0.32 µM; under `CCN(CC)S(=O)(=O)c1cccc(C(=O)Nc2nc3cc4c(cc3s2)OCCO4)c1`, 12.8 µM (inactive).
Under `CC(=O)NC(c1ccco1)c1ccc2cccnc2c1O` (stereo not given) stands 3.65 µM; under `O=C(NCc1cccnc1)c1c[nH]c2cc3c(cc2c1=O)OCCO3`, 1.09 µM; under `COc1ccccc1N1CCN(C(=O)C2c3ccccc3Oc3ccccc32)CC1`, 1.27 µM.
For the compound `CC(C)Oc1cc(O)c2c(=O)c(-c3ccc(O)cc3)coc2c1`, the CC50 was 11 µM (inactive).
Under `O=c1cc(Nc2ccc3c(c2)OCCO3)[nH]c(=O)n1C1CCCCC1` stands 11.7 µM (inactive); under `COc1ccc(C2=Nn3c(nnc3-c3ccc(OC)cc3)SC2)cc1`, 0.325 µM; under `CCN(CC)S(=O)(=O)c1cc(C(=O)Nc2ccncc2)ccc1Cl`, 8.55 µM (inactive).
`CN(C)c1ccc(C2C=C(c3ccc(Cl)cc3OC(F)F)Nc3ncnn32)cc1` (stereo not given): the CC50 is 3.56 µM.
To `COc1cccc(OC)c1C1=NCC(=O)Nc2c1oc1ccc(Br)cc21` belongs 0.693 µM.
Consider `CCc1ccc(CCC(=O)Nc2sc3c(c2C#N)CCCC3)o1`, for which the cytotoxic concentration (CC50) was 3.05 µM.
`N#CCCn1cc(/C=N/O)c(-c2ccc(-c3ccccc3)cc2)n1`: the CC50 was 11.6 µM (inactive).
In the case of `CCOC(=O)c1[nH]c2c(c1C)C(=O)CC(c1ccco1)C2` (stereo not given), the 50% cytotoxic concentration (CC50) was 0.201 µM.
As for `CCOc1ccccc1N1CC(O)=C(c2nc3ccccc3s2)C1=N`, the CC50 is 1.84 µM.
As for `CN(C)S(=O)(=O)c1ccc(C(=O)Nc2nc(-c3cccs3)cs2)cc1`, the CC50 is 21.1 µM (inactive).
Take `CCOC(=O)COc1cccc2c(=O)n(CC(=O)NCc3ccc4c(c3)OCO4)ccc12`: the CC50 was 5.51 µM (inactive).
To `Cc1ccc2c(c1)[nH]c1c(N3CCN(Cc4ccccc4)CC3)ncnc12` belongs > 40 µM (inactive).
Under `COc1ccc(OC)c(NS(=O)(=O)c2ccc(SC)cc2)c1` stands 3.29 µM; under `CCCNc1nc2c(c(=O)n(C)c(=O)n2C)n1CCC(C)C`, 11.9 µM (inactive); under `CCOc1ccc(S(=O)(=O)Nc2cc(OC)ccc2OC)cc1`, 0.145 µM.
Regarding `COc1ccccc1N=c1oc2cc(O)ccc2cc1C(N)=O`, the CC50 was > 13 µM (inactive).
Under `COC(=O)c1ccc(NC(=O)c2ccc(N(C)S(C)(=O)=O)cc2)cc1` stands 11.9 µM (inactive); under `COc1ccccc1N1CCN(Cc2cc(Br)c(O)c3ncccc23)CC1`, 7.73 µM (inactive).
Consider `CCc1nnc(NC(=O)CSc2nnc(-c3ccccc3O)n2-c2ccc(C)cc2C)s1`, for which the CC50 was 4.43 µM.
As to `CCOC(=O)C1CCN(C(c2cccnc2)c2c(NC(=O)c3ccco3)sc(C)c2C)CC1` (stereo not given), the CC50 was > 40 µM (inactive).
To `Cc1ccc(O)c(NC(=O)CCC2CCCCC2)c1` belongs 6 µM (inactive); to `CC(=O)Nc1ccccc1N(C)S(=O)(=O)c1ccc(C)cc1`, 4.57 µM; to `CNC(=O)N(C1=NCC(C)(C)S1)c1ccc(F)c(Cl)c1`, 10.4 µM (inactive).
Under `CCCCOc1ccccc1C1CC(=O)NC2=C1C(=O)CCC2` (stereo not given) stands 0.872 µM; under `C=C(C)COc1ccc(-c2[nH]ncc2-c2ccc(OC)c(OC)c2)c(O)c1`, 0.782 µM; under `CCc1nnc(NC(=O)c2ccc(S(=O)(=O)N(CC)Cc3ccccc3)cc2)o1`, 26 µM (inactive).
`COc1ccc(C(NC(C)=O)c2ccc3cccnc3c2O)c(OC)c1` (stereo not given): the CC50 is 3.15 µM.
`CCOC(=O)Nc1ccc2c(c1)N(C(=O)OC)c1ccccc1CC2`: the CC50 was > 4.4 µM (inactive).
`O=C(c1cc2c(s1)-c1ccccc1OC2)N1CCC2(CC1)OCCO2`: the CC50 was 6.1 µM (inactive).
Under `NS(=O)(=O)c1ccc(CCNc2ncnc3sccc23)cc1` stands 3.37 µM; under `O=C(Oc1ccc2c(c1)OCO2)c1cc2c(s1)CCC2`, > 40 µM (inactive); under `c1ccc(OCCCCn2cnc3ccccc32)cc1`, 20.3 µM (inactive).
Under `CCc1nnc(NC(=O)c2ccc(S(=O)(=O)N(CC(C)C)CC(C)C)cc2)o1` stands 29.8 µM (inactive); under `Cn1cc(/C(Cc2ccccc2)=N\O)c2ccccc21`, 12.9 µM (inactive).
For the compound `CC(C)C(=O)NC(c1ccco1)c1ccc2cccnc2c1O` (stereo not given), the CC50 is 2.89 µM.
On to `CCCCCN=Cc1c(C)[nH]n(-c2nc3ccccc3s2)c1=O`, for which the CC50 was 6.35 µM (inactive).
As for `Cc1noc(C)c1CSc1nc2ccccc2c(=O)n1-c1ccccc1`, the CC50 was 2.28 µM.
With `COc1cccc(CNC(=O)c2cc3oc4ccccc4c3n2C)c1OC`, the CC50 was > 40 µM (inactive).
As for `Cc1cc(NC(=O)CCS(=O)(=O)c2nc(-c3ccccc3)cc(C(F)(F)F)n2)no1`, the CC50 is 5.13 µM (inactive).
Consider `c1ccc2c(CCNc3ncnc4nc[nH]c34)c[nH]c2c1`, for which the CC50 was 3.85 µM.
With `CCOC(=O)N1CCC(NC(=O)c2ccc3c(c2)sc2nc(-c4cccc(OC)c4)cn23)CC1`, the CC50 was 35.1 µM (inactive).
Under `Cc1ccc(S(=O)(=O)Nc2cccc3ncccc23)s1` stands 10.3 µM (inactive); under `Cn1cc(C(=O)c2ccc(Cl)cc2)cc1-c1nc2ccccc2n1C`, 23.3 µM (inactive); under `Clc1ccc(CCNc2ncnc3nc[nH]c23)cc1`, 19.6 µM (inactive).
As for `C/C=C/COC(=O)c1[nH]c2c(c1C)C(=O)CC(c1ccco1)C2` (stereo not given), the CC50 is 0.196 µM.
Under `Cc1ccc2c(c1)nnn2C1CCN(S(=O)(=O)c2ccc(C(=O)N3C(C)CCCC3C)cc2)CC1` (stereo not given) stands 9.39 µM (inactive).
Under `CCOc1ccccc1C(=O)N1CCN(c2cccc(Cl)c2)CC1` stands 0.095 µM.
Under `Cc1cccc2cc3c(N)c(C(=O)N4CCOCC4)sc3nc12` stands 0.95 µM; under `CN(C)CC(C(=O)c1ccccc1)c1ccccc1` (stereo not given), 3.91 µM.
With `N=c1c2c(-c3ccccc3)c(-c3ccccc3)n(Cc3ccco3)c2ncn1Cc1ccco1`, the CC50 was 23.7 µM (inactive).
As to `Cc1cc(C)c2ccc(N)nc2c1O`, the CC50 is 6.83 µM (inactive).
As to `O=C(NCc1cccnc1)NC1(C(F)(F)F)Oc2ccc(Cl)cc2O1` (stereo not given), the CC50 is 8.08 µM (inactive).
For `COc1ccc(N2CCn3c2nc2c3c(=O)n(CCCc3ccccc3)c(=O)n2C)c(OC)c1`, the CC50 is > 40 µM (inactive).
As for `CC1(C)Cc2nc3sc4c(SCC(=O)NCc5ccco5)ncnc4c3cc2CO1`, the CC50 is 18 µM (inactive).
Take `COc1ccccc1-c1cc(C(F)(F)F)nc(S(=O)(=O)CCCC(=O)N2CCCCC2C)n1` (stereo not given): the half-maximal cytotoxic concentration (CC50) is 4.22 µM.
To `O=C(Nc1ccc2c(c1)nc1n2CCCCC1)c1cc(S(=O)(=O)N2CCOCC2)ccc1Cl` belongs 21.1 µM (inactive).
In the case of `Cc1ccc(S(=O)(=O)Nc2ccc3ncccc3c2)cc1`, the CC50 is 10.7 µM (inactive).
With `Oc1ccc(N=Cc2ccc(O)c(O)c2)cc1`, the CC50 was 25.9 µM (inactive).
As to `N#CC(C#N)=c1ccc2c(c1)NC1(CCCCC1)N=2`, the CC50 was 8.08 µM (inactive).
Under `CCOC(=O)c1c(C)c(C(=O)Nc2ccc(N(C)C)cc2)c(C)n1CC` stands 5.84 µM (inactive).
Under `COc1ccc(Cl)cc1S(=O)(=O)n1cnc2ccccc21` stands > 40 µM (inactive).
To `COc1ccccc1C1C=C(c2ccc(C)cc2)Nc2nnnn21` (stereo not given) belongs > 40 µM (inactive).
Take `COc1cc(NS(=O)(=O)c2ccc(OC)c(C)c2C)c(OC)cc1Cl`: the CC50 is 1.62 µM.
Under `Cc1c(C(=O)OCCOC(C)C)[nH]c2c1C(=O)CC(c1ccco1)C2` (stereo not given) stands 0.156 µM; under `COc1ccc(CNc2cc(C)nc3ncnn23)c(OC)c1`, 3.25 µM.
For the compound `CC(C)Oc1ccccc1C1CC(=O)Nc2cc3c(cc21)OCO3` (stereo not given), the CC50 was 0.812 µM.
Under `COC(=O)c1ccc(Oc2cc(C)nc(-n3nc(C)cc3C)n2)cc1` stands 0.112 µM; under `COCCOC(=O)c1[nH]c2c(c1C)C(=O)CC(c1ccco1)C2` (stereo not given), 0.945 µM; under `Cc1ccc(C)c2[nH]c(=O)c(CN(CCN3CCCC3)C(=O)Nc3cccc(Cl)c3)cc12`, > 40 µM (inactive).
Under `COc1cccc(/C=N/n2c(SC)nnc2-c2ccccc2)c1O` stands 10 µM (inactive).
For the compound `Cc1ccc(S(=O)(=O)C2(S(=O)(=O)c3ccc(C)cc3)CCCC2)cc1`, the CC50 is 3.23 µM.
Under `Cc1cc(NO)nc(-c2ccc(Br)cc2)n1` stands > 40 µM (inactive); under `CC(=O)Nc1ccccc1OCC(=O)c1cc(C)n(Cc2cccs2)c1C`, 0.16 µM; under `Cc1nc(CNS(=O)(=O)c2ccc(Oc3ccccc3)cc2)cs1`, 10.6 µM (inactive).
Under `Cc1cnc(C(=O)Nc2cccc3cccnc23)cn1` stands 0.803 µM; under `O=C1CCCN1c1ccc(S(=O)(=O)Nc2ccc3c(c2)OCCO3)cc1`, 1.78 µM; under `CCOC(=O)c1[nH]c2c(c1C)C(=O)CC(c1ccc(F)cc1)C2` (stereo not given), 0.708 µM.
